Experimental data published in patent publication US20080124753A1, “SpiceMatrix Technology for Taste Compound Identification” (priority 2006, published 2008).
“Also recorded” adds a separate entry of the source.

What was measured:
[1] = target: T1, TRPV1 (Homo sapiens, UniProt Q8NER1); experiment: FMP membrane potential fluorescence assay, TRPV1 transfected HEK 293 cells; format: cell-based
Text: (§1) As described in greater detail below, HEK 293 cells, transiently transfected with plasmid bearing the genes encoding the various ion channels, were used to develop SpiceMatrix fingerprint assay. Indirect measurement of the changes in ion concentrations within the HEK 293 cells were made using a FMP dye and stimulation of the cells using calcium activating agents. Described below are the conditions for screening using TRPM5. Screening conditions for other TRP ion channels were similar to those described unless otherwise indicated.
(§2) 1.0×10^6 HEK 293 cells (ATCC) were plated in each well of a 6-well tissue culture dish overnight. The following day, cells were transfected with 4 μg of a pcDNA3.2 vector containing TRPM5 cDNA and 8 μl of Lipofectamine 2000 (Invitrogen), according to the manufacturer's protocol, and incubated overnight. […]
(§3) Once the expression of TRPM5 was confirmed in the HEK cells, 100 μl of the Blue or Red FMP dye (Molecular Devices) was added to each well of plates seeded with the transiently transfected cells. […] The plate was read in a FLEXStation microplate reader (Molecular Devices) with an excitation of 530 nm and an emission of 565 nm. The fluorescence was monitored for 3 minutes upon exposure of the cells to a calcium activating agent (carbachol, thrombin peptide or ATP). […]

[2] = target: T2, TRPA1 (Homo sapiens, UniProt O75762); experiment: FMP membrane potential fluorescence assay, TRPA1 transfected HEK 293 cells; format: cell-based; conditions: for relative stimulation of TRPA1 (SpiceMatrix reactivity): FIG. 2A, relative to untransfected HEK-293 cells (Parentals), among 68 compounds
T2 sequence (O75762 whole entry): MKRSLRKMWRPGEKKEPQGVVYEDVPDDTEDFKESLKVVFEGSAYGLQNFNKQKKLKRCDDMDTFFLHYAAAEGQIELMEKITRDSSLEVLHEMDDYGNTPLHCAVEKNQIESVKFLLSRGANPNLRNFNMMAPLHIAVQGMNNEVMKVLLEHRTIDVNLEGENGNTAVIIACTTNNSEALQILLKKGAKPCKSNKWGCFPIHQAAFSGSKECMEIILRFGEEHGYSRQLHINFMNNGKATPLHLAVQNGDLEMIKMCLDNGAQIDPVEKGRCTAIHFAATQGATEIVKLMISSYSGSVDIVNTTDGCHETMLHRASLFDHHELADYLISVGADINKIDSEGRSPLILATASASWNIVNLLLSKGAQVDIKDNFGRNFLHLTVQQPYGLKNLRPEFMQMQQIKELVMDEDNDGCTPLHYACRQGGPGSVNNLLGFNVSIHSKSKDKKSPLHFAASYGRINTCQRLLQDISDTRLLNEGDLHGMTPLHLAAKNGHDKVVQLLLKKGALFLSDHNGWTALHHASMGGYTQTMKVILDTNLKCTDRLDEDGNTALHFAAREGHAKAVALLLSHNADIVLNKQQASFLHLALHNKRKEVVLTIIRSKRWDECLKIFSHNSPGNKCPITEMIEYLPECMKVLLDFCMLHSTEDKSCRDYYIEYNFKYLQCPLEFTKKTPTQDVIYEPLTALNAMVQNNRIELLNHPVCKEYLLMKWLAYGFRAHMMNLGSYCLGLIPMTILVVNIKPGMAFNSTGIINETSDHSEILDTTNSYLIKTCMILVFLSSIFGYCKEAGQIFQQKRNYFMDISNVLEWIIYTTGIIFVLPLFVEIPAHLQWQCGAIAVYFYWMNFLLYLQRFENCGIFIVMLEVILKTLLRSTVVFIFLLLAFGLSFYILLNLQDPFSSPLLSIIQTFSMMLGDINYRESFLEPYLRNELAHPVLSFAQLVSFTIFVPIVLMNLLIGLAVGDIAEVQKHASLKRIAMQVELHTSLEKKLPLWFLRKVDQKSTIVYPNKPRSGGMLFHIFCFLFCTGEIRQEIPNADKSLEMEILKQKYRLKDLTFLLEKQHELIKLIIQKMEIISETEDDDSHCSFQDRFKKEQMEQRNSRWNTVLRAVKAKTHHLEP
Text: as §1
1.0×10^6 HEK 293 cells (ATCC) were plated in each well of a 6-well tissue culture dish overnight. The following day, cells were transfected with 4 μg of a pcDNA3.2 vector containing TRPM5 cDNA and 8 μl of Lipofectamine 2000 (Invitrogen), according to the manufacturer's protocol, and incubated overnight. The following day, transfected cells were trypsinized and seeded into 96-well black, clear bottom, poly-D-lysine plates (Corning) at a density of 70,000 cells/well in a 100 μl volume and incubated in a 37° C./5% CO2 incubator overnight.
Once the expression of TRPM5 was confirmed in the HEK cells, 100 μl of the Blue or Red FMP dye (Molecular Devices) was added to each well of plates seeded with the transiently transfected cells. The plate was then incubated in a 37° C./5% CO2 incubator for 1 hour. The plate was read in a FLEXStation microplate reader (Molecular Devices) with an excitation of 530 nm and an emission of 565 nm. The fluorescence was monitored for 3 minutes upon exposure of the cells to a calcium activating agent (carbachol, thrombin peptide or ATP).
For screening of taste compounds, sample dilution sets (four 384 sample plates) were tested in 5, dye-loaded, cell lines to yield 20 assay plates for data collection. One cell plate, a sample plate, and an agonist sample source plate were placed in the FLIPR. To identify samples with agonist activity, 10 μl of samples or standards were added to the cell plate, and sample agonist response fluorescent readings taken for 3 minutes. To identify samples with antagonist activity, agonist, e.g. 100 μM cinnamaldehyde for TRPA1, was added to all wells and agonist response fluorescent readings were taken for 2 minutes. Sample that block this response were nominally antagonists.

[3] = target: T3, TRPM5 (Homo sapiens, UniProt Q9NZQ8); experiment: FMP membrane potential fluorescence assay, TRPM5 transfected HEK 293 cells; format: cell-based
T3 construct: The full length TRPM5 was excised from the TOPO TA vector; expressed in transfected cells; host or cells: HEK 293 (ATCC)
T3 sequence (Q9NZQ8 1-1165): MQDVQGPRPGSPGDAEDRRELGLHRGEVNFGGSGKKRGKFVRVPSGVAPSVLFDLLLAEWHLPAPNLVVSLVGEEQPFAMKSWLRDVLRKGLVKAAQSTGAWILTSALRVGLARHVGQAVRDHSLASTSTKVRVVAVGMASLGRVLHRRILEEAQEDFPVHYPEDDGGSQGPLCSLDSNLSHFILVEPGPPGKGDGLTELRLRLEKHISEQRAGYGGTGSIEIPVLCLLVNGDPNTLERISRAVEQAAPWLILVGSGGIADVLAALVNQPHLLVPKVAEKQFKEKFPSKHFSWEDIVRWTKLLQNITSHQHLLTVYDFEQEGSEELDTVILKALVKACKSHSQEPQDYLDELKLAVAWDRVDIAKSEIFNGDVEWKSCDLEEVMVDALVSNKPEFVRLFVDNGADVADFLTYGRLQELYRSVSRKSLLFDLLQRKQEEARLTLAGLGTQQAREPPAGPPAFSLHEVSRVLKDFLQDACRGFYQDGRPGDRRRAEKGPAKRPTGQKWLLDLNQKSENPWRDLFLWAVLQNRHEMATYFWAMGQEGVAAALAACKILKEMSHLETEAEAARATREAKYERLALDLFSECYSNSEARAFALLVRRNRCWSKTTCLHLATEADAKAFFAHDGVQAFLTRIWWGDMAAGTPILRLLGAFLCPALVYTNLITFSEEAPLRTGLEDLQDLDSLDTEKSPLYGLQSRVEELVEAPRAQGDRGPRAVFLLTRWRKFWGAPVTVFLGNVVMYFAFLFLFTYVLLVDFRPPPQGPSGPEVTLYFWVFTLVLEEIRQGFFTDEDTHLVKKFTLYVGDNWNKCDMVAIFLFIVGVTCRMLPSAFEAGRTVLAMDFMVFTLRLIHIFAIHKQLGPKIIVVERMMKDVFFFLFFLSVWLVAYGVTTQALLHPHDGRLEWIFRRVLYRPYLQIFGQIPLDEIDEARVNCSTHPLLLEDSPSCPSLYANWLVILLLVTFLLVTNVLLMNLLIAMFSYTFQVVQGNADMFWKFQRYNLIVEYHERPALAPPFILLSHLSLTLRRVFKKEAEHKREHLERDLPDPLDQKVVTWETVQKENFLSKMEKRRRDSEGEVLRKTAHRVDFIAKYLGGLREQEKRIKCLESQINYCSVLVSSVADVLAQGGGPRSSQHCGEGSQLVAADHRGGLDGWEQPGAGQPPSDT
Text: as §1, with “indicated. […]” for “indicated.”
Once the expression of TRPM5 was confirmed in the HEK cells, 100 μl of the Blue or Red FMP dye (Molecular Devices) was added to each well of plates seeded with the transiently transfected cells. […] The plate was read in a FLEXStation microplate reader (Molecular Devices) with an excitation of 530 nm and an emission of 565 nm. The fluorescence was monitored for 3 minutes upon exposure of the cells to a calcium activating agent (carbachol, thrombin peptide or ATP).
For screening of taste compounds, sample dilution sets (four 384 sample plates) were tested in 5, dye-loaded, cell lines to yield 20 assay plates for data collection. […] To identify samples with agonist activity, 10 μl of samples or standards were added to the cell plate, and sample agonist response fluorescent readings taken for 3 minutes. […]

[4] = target: T2, TRPA1; conditions: literature reports; cited from earlier work
[5] = target: T4, mouse TRPA1 (Mus musculus, UniProt Q8BLA8); conditions: mouse TRPA1-CHO cells, literature report; cited from earlier work
T4 construct: host or cells: CHO
T4 sequence (Q8BLA8 whole entry): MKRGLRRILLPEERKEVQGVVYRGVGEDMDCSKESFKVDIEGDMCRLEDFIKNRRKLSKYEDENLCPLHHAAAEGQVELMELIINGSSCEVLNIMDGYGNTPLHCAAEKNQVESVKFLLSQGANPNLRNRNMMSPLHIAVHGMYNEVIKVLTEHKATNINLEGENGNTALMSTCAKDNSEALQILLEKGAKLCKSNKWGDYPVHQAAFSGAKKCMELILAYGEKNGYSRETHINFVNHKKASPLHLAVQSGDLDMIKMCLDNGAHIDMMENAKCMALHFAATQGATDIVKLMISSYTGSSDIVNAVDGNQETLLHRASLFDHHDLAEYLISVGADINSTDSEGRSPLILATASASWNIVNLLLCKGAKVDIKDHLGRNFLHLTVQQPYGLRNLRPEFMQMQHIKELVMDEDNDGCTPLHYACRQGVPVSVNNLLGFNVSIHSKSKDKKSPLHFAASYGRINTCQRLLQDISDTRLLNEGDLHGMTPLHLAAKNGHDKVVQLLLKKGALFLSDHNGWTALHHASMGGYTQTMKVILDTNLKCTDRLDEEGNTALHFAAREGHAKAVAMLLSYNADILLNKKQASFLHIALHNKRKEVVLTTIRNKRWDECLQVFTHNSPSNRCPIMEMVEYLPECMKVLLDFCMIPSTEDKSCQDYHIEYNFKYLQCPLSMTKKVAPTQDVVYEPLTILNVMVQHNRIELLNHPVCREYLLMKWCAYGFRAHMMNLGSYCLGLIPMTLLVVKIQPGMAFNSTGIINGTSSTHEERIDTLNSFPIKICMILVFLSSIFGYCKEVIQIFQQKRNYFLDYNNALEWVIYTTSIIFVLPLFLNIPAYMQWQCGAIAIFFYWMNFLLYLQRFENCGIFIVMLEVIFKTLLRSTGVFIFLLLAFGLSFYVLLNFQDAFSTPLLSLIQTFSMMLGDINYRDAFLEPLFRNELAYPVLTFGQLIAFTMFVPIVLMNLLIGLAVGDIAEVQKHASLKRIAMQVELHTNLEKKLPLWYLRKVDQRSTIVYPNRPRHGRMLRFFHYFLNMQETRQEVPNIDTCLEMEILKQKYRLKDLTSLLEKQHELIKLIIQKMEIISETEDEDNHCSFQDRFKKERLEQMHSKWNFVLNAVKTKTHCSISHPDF

[6] = target: T1, TRPV1; conditions: literature report (Calixto et al.); cited from earlier work
[7] = target: T5, TRPM8 (Homo sapiens, UniProt Q7Z2W7); conditions: literature reports; cited from earlier work
T5 sequence (Q7Z2W7 whole entry): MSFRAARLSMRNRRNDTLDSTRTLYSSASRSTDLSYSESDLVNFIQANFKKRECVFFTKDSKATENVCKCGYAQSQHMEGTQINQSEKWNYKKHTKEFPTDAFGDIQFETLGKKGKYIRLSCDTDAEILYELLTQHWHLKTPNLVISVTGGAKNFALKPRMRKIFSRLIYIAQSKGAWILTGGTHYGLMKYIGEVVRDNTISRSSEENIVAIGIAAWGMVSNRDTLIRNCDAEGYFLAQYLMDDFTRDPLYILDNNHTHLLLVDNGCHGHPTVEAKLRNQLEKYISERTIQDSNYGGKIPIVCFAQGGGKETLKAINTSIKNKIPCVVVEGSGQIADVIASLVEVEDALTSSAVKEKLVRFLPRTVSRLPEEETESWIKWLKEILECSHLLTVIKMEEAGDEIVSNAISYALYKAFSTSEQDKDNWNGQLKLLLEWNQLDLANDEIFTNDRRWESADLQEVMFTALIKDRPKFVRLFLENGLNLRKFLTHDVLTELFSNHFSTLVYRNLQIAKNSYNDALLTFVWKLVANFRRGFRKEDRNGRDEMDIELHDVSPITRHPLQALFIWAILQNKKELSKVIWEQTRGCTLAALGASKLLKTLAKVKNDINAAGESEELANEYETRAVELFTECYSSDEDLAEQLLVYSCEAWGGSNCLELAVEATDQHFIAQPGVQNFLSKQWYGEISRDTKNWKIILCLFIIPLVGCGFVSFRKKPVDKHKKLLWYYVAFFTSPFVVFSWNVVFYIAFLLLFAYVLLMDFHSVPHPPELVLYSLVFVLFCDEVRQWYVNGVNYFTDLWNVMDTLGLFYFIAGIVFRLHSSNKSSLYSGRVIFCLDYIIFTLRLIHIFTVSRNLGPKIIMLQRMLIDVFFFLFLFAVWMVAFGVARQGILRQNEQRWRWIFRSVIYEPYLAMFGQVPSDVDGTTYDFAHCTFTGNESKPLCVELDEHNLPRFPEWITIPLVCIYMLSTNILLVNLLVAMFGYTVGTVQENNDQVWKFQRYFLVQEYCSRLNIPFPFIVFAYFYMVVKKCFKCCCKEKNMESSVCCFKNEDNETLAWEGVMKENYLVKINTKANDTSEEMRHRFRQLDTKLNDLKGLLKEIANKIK

[8] = target: T5, TRPM8; experiment: FMP membrane potential fluorescence assay, TRPM8 transfected HEK 293 cells; format: cell-based; conditions: FIG. 1D, FLIPR
Text: as §1, §2, §3

T1 sequence (Q8NER1 whole entry): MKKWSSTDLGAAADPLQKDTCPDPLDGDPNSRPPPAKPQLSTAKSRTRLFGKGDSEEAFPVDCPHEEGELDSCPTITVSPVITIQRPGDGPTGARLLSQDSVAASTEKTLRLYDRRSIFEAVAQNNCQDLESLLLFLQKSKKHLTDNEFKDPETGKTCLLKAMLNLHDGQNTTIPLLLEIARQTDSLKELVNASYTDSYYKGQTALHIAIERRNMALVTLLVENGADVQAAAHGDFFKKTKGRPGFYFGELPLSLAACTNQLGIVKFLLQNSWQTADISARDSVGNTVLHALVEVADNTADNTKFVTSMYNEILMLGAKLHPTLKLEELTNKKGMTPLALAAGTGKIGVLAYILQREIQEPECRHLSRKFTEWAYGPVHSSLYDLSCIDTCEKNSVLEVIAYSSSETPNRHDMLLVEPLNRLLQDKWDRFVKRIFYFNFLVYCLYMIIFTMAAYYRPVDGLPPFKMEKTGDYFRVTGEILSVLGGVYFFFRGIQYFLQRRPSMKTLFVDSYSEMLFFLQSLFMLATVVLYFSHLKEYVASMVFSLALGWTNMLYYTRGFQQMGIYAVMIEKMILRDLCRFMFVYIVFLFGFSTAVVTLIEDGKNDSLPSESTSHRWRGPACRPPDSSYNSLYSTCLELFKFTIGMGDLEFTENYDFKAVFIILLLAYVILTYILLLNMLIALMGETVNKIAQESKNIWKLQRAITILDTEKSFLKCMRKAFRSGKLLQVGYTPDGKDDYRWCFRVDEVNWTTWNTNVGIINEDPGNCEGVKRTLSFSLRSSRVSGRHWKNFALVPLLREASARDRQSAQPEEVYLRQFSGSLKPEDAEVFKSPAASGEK

Compound | relative stimulation of TRPA1 (SpiceMatrix reactivity) [2] | activation of TRPA1 [4] | increase in intracellular free Ca2+ [5] | activation of TRPV1 [6] | activation of TRPM8 [7] | further results
COc1cc(CNC(=O)CCCC/C=C/C(C)C)ccc1O [capsaicin] | – | – | – | – | – | change in relative fluorescent intensity of a voltage-sensitive dye ([1]; FIG. 1C, TRPV1 transfected cells, FMP dye, FLIPR): strong spike in relative fluorescence; also recorded: activates TRPV1
C=CCN=C=S [allyl isothiocyanate] | highly reactive | specific activators of TRPA1 | – | – | – | relative stimulation of TRPM5 (SpiceMatrix reactivity) ([3]; FIG. 2, relative to untransfected HEK-293 cells (Parentals)): highly reactive
CCCCC[C@H](O)CC(=O)CCc1ccc(O)c(OC)c1 [gingerol] | – | activate | sharp increase | activate | activate | relative stimulation of TRPV1 (SpiceMatrix reactivity) ([1]; FIG. 2A, relative to untransfected HEK-293 cells (Parentals), among 68 compounds): highest degree of stimulation to TRPV1
CC1CCC(C(C)C)C(O)C1 (single isomer, unassigned; (-)) [(−) menthol] | greatest stimulation of TRPA1 | – | – | – | – | –
CC1CCC(C(C)C)C(O)C1 (stereo not shown) [menthol] | – | – | – | – | activate the TRPM8 | change in relative fluorescent intensity of a voltage-sensitive dye [8]: strong spike in relative fluorescence; also recorded: activates TRPM8
O=CC=Cc1ccccc1 [cinnamaldehyde] | greatest stimulation of TRPA1 | activated; also recorded: specific activators of TRPA1 | – | – | – | change in relative fluorescent intensity of a voltage-sensitive dye ([2]; FIG. 1A, TRPA1 transfected cells, FMP dye, FLIPR): strong spike in relative fluorescence; also recorded: activates TRPA1
COC(=O)c1ccccc1O [methyl salicylate] | – | activate | sharp increase | activate | activate | –
CCCCCc1cc(O)c2c(c1)OC(C)(C)[C@@H]1CCC(C)=C[C@@H]21 [A^9-tetrahydrocannabinol] | – | activated | – | – | – | –
C[N+](C)(C)CCOC(N)=O [carbachol] | – | – | – | – | – | change in relative fluorescent intensity of a voltage-sensitive dye ([3]; FIG. 1B, TRPM5 transfected cells, FMP dye, FLIPR): strong spike in relative fluorescence; also recorded: increases TRPM5
C=CCc1ccc(O)c(OC)c1 [eugenol] | – | activate | sharp increase | activate | activate | –
